In US20250338846A1, “COMPOSITIONS HAVING PESTICIDAL UTILITY AND PROCESSES RELATED THERETO” (CORTEVA AGRISCIENCE, LLC, priority 2022, published 2025):

Experiments:
Format in all cases: in vivo
[1] = test system: Sweet Potato Whitefly (Bemisia tabaci, BEMITA); experiment: Bioassay 8: Sweet Potato Whitefly, spray on cotton seedlings at crawler emergence, nymphs counted 7-9 days after treatment; settings: AI alone 0.1 (10^-5) Wt %
Experimental: where X=No. of live aphids on solvent check plants and Y=No. of live aphids on treated plants. In Table B1 the “Expected % Control” was calculated using the method described in Colby S. R., Weeds, 1967, 15, 20-22. Bioassay 8: Sweet Potato Whitefly (Bemisia tabaci, BEMITA) (“SPW”).
(§1) Stock solutions were prepared with Formula One as well as for each of the active ingredients individually. Test solutions were prepared from the stock solutions. Test solutions were prepared containing Formula One, the individual active ingredients, and mixtures of Formula One with each of the active ingredients. The test solutions for Formula One and the individual active ingredients were prepared by adding 500 μL of stock solution to a 25 mL glass vial, then adding 500 μL of acetone, followed by the addition of 9 mL water with 0.025% Tween®) 20 to create a 0.001% (w/v) solution. The test solutions containing mixtures of Formula One and the individual active ingredients were prepared by adding 500 μL of the active ingredient stock solution to a 25 mL glass vial, followed by 500 μL of the Formula One stock solution, then by the addition of 9 mL water with 0.025% Tween®) 20 to create a test solution containing 0.001% (w/v) Formula One and 0.001% (w/v) of the active ingredient. Each test solution was serially diluted to create desired doses of test solutions (0.001% (w/v), 0.0001% (w/v), 0.00001% (w/v), 0.000001% (w/v), 0.0000001% (w/v), 0.000008% (w/v) and 0.00000001% (w/v)).
(§2) The test solutions were tested against SPW using the following procedure: Cotton seedlings grown in 3-inch pots, pruned so that only one true leaf remained, were used as test substrate. Adult B. tabaci were allowed to colonize the cotton plants and lay eggs for 24 hours after which all adults were removed from the plants using compressed air. Plants were monitored for egg development and, when crawler emergence was underway (>25% emergence based on visual examination using a microscope), the plants were sprayed using the test solutions and methods described above for green peach aphids (GPA). Treated plants were held in a holding room at approximately 25° C. and ambient relative humidity (RH) prior to grading. Evaluation was conducted by counting the number of developed 2-3 instar nymphs per plant under a microscope 7-9 days after treatment. Percent control was measured using Abbott's correction formula (W. S. Abbott, J. Econ. Entomol. 18 (1925), pp. 265-267) as follows:
where X=No. of live nymphs on solvent check plants and Y=No. of live nymphs on treated plants. In Table B2 the “Expected % Control” was calculated using the method described in Colby S. R., Weeds, 1967, 15, 20-22. Bioassay 9: Diamondback Moth (Plutella xylostella, PLUTMA) (DBM).

[2] = test system: Neotropical Brown Stink Bug (Euschistus heros, EUSCHE); experiment: whole plant or invertebrate
Experimental: (§3) X=No. of live nymphs on solvent check and Y=No. of live nymphs on treated bean segments. In Table B4 the “Expected % Control” was calculated using the method described in Colby S. R., Weeds, 1967, 15, 20-22. Bioassay 5: Neotropical Brown Stink Bug (Euschistus heros, EUSCHE) (“BSB”).
Stock solutions were prepared with Formula One as well as for each of the active ingredients individually. Test solutions were prepared from the stock solutions. Test solutions were prepared containing Formula One, the individual active ingredients, and mixtures of Formula One with each of the active ingredients. The test solution for Formula One was prepared by adding 500 μL of the stock solution to a 25 mL glass vial, then adding 500 μL of acetone, followed by the addition of 9 mL water with 0.025% Tween®) 20 to create a 0.04% (w/v) solution. The individual active ingredients were prepared by adding 500 μL of stock solution to a 25 mL glass vial, then adding 500 μL of acetone, followed by the addition of 9 mL water with 0.025% Tween®) 20 to create a 0.005% (w/v) solution. The test solutions containing mixtures of Formula One and the individual active ingredients were prepared by adding 500 μL of the active ingredient stock solution to a 25 mL glass vial, followed by 500 μL of the Formula One stock solution, then by the addition of 9 mL water with 0.025% Tween®) 20 to create a test solution containing 0.04% (w/v) Formula One and 0.005% (w/v) of the active ingredient. Each test solution was serially diluted to create desired doses of test solutions (0.01% (w/v), 0.0025% (w/v), 0.000625% (w/v), 0.000156% (w/v), and 0.000039% (w/v)). In test solutions containing mixtures of Formula One and the active ingredients, the active ingredients were diluted as described above, but the Concentration of Formula One was held constant (0.04% (w/v)).
The test solutions that were tested against BSB were similar to those described above for WTPB. Fresh green beans were cut into segments approximately 1.5 inches long. Four bean segments were added to each test solution and soaked for approximately 15 minutes. After soaking, a single bean fragment was removed and placed into a single well of a 32-well rearing tray (Frontier Agricultural Sciences™), on top of a round filter paper disc. A reference treatment (solvent check) was treated with the diluent only. Each treatment was replicated four times and the test treatments were held at approximately 26° C. and ambient relative humidity (RH) prior to grading. Bean segments were allowed to air dry for ˜30 minutes. Three BSB nymphs were added to and contained in each well with a clear perforated adhesive lid. The total number of living BSB nymphs was recorded 3 days after application. Scoring was based off the total number of living nymphs out of all four replicates. Percent control was measured using Abbott's correction formula (W. S. Abbott, J. Econ. Entomol. 18 (1925), pp. 265-267) as follows:
where X=No. of live nymphs on solvent check and Y=No. of live nymphs on treated bean segments. In Table B5 the “Expected % Control” was calculated using the method described in Colby S. R., Weeds, 1967, 15, 20-22. Bioassay 6: Beet Armyworm (Spodoptera exigua, LAPHEG) (BAW), and Diamondback Moth (Plutella xylostella, PLUTMA) (DBM).

[3] = test system: Western Tarnished Plant Bug (Lygus hesperus, LYGUHE); experiment: Bioassay 4: Western Tarnished Plant Bug, soaked green bean segments, living nymphs 3 days after application
Experimental: where X=No. of live nymphs on solvent check leaf discs and Y=No. of live nymphs on treated leaf discs. In Table B3 the “Expected % Control” was calculated using the method described in Colby S. R., Weeds, 1967, 15, 20-22. Bioassay 4: Western Tarnished Plant Bug (Lygus hesperus, LYGUHE) (“WTPB”).
Stock solutions were prepared with Formula One as well as for each of the active ingredients individually. Test solutions were prepared from the stock solutions. Test solutions were prepared containing Formula One, the individual active ingredients, and mixtures of Formula One with each of the active ingredients. The test solution for Formula One was prepared by adding 500 μL of the stock solution to a 25 mL glass vial, then adding 500 μL of acetone, followed by the addition of 9 mL water with 0.025% Tween®) 20 to create a 0.04% (w/v) solution. The test solutions of the individual active ingredients were prepared by adding 500 μL of stock solution to a 25 mL glass vial, then adding 500 μL of acetone, followed by the addition of 9 mL water with 0.025% Tween®) 20 to create a 0.005% (w/v) solution. The test solutions containing mixtures of Formula One and the individual active ingredients were prepared by adding 500 μL of the active ingredient stock solution to a 25 mL glass vial, followed by 500 μL of the Formula One stock solution, then by the addition of 9 mL water with 0.025% Tween®) 20 to create a test solution containing 0.04% (w/v) Formula One and 0.005% (w/v) of the active ingredient. Each test solution was serially diluted to create desired doses of test solutions (0.005% (w/v), 0.00125% (w/v), 0.0003125% (w/v), 0.000078% (w/v), and 0.0000195% (w/v)). In test solutions containing mixtures of Formula One and the active ingredients, the active ingredients were diluted as described above, but the Concentration of Formula One was held constant (0.04% (w/v)).
The test solutions were tested against WTPB using the following procedure: Fresh green beans were cut into segments approximately 1.5 inches long. Four bean segments were added to each 25 mL vial containing the test solutions and soaked for approximately 15 minutes. After soaking, a single bean fragment was removed and placed into a single well of a 32-well rearing tray (Frontier Agricultural Sciences™), on top of a round filter paper disc. A reference treatment (solvent check) was treated with the diluent only. Each treatment was replicated four times and the test treatments were held at approximately 26° C. and ambient relative humidity (RH) prior to grading. Bean segments were allowed to air dry for ˜30 minutes. Three WTPB nymphs were added to and contained in each well with a clear perforated adhesive lid. The total number of living WTPB nymphs was recorded 3 days after application. Scoring was based off the total number of living nymphs out of all four replicates. Percent control was measured using Abbott's correction formula (W. S. Abbott, J. Econ. Entomol. 18 (1925), pp. 265-267) as follows:
as §3

[4] = test system: Sweet Potato Whitefly (Bemisia tabaci, BEMITA); experiment: Bioassay 2: Sweet Potato Whitefly, spray on cotton seedlings at crawler emergence, nymphs counted 7-9 days after treatment; settings: AI alone 1 (10-5) % w/v
Experimental: as §1, with “(w/v),” for “(w/v), 0.000008% (w/v)”
as §2
where X=No. of live nymphs on solvent check plants and Y=No. of live nymphs on treated plants. In Table B2 the “Expected % Control” was calculated using the method described in Colby S. R., Weeds, 1967, 15, 20-22. Bioassay 3: Western Flower Thrips (Frankliniella occidentalis, FRANOC) (“WFT”).

Molecule: CC1(C)C(C=C(Cl)Cl)C1C(=O)OC(C#N)c1ccc(F)c(Oc2ccccc2)c1 (stereo not drawn) [Cyfluthrin]
- Average % Control A1 [1]: 46.90%

Molecule: CC(c1ccc(C(F)(F)F)nc1)S(C)(=O)=NC#N (stereo not drawn) [Sulfoxaflor]
- pest or weed control at 0.0025 % strength ([2]; Euschistus heros, 72 h, AI alone 0.0025 % w/v, read-out: Average % Control AI): 58%
- Average % Control AI ([3]; AI alone 0.0003125 % w/v): 0%

Molecule: Spinetoram
- Average % Control AI ([2]; AI alone 0.000625 % w/v): 8%
- Average % Control AI ([3]; AI alone 0.005 % w/v): 0%
- Average % Control AI [4]: 41%
